Measurements taken from patent publication US9624229B2, “Pyrimidine-2-amine compounds and their use as inhibitors of JAK kinases” (Rigel Pharmaceuticals, Inc., priority 2008, dated 2017).

What follows are molecules tested against Ba/F3 V617F cells (Homo sapiens, UniProt O60674, V617F, cells depend on it) (assay: Proliferation assay (Cell Titer-Glo, 72 h) utilizing Ba/F3 V617F cells). Conditions: Ba/F3 V617F cells, proliferation, level of activity given as class symbol, read-out: IC50 (the source's name).
Sequence of Ba/F3 V617F cells (O60674 whole entry V617F): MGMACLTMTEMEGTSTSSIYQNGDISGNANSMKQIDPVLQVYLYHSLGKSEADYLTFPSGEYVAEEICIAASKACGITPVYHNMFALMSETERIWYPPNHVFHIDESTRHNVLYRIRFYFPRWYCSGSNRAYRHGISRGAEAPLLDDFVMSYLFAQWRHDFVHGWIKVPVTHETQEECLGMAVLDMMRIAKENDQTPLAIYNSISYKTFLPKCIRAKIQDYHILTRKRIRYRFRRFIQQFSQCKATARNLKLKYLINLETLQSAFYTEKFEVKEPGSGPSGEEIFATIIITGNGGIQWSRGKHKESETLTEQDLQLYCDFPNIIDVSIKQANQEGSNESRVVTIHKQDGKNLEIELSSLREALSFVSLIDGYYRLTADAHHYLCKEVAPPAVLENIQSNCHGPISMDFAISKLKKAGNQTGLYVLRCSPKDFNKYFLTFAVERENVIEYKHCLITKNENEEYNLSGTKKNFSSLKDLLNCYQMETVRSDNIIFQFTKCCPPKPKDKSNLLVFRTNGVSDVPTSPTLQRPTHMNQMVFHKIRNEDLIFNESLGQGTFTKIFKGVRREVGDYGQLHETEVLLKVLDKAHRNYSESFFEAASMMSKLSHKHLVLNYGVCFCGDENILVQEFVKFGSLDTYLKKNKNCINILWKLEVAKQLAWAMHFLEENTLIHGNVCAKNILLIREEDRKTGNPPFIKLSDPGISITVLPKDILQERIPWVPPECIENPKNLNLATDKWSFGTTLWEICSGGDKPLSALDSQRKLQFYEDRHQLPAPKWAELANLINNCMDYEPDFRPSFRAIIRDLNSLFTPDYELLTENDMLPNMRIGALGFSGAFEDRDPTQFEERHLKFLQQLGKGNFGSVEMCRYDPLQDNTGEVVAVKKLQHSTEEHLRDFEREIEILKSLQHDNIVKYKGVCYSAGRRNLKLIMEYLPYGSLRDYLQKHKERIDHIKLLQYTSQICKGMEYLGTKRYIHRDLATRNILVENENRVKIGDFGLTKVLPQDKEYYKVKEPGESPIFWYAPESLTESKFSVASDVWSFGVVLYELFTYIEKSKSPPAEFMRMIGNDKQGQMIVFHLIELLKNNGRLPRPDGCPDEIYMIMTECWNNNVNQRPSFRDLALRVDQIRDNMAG
Assay type: cell-based, mouse
How it was run: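 Ba/F3 V617F cells in RPMI/10% FBS, 1×10^5 cells/mL, exposed in duplicate to 3-fold serial compound dilutions (top 5 mM DMSO stock, diluted 1:250, added as 2× solution in 5% FBS medium) for 72 h at 37 °C. Viability by Cell Titer-Glo luminescence; IC50 reported.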

Structure (SMILES)	GI50 [µM]
Cc1cc(Nc2nccc(-c3cnc4[nH]c5c(c4c3)CCCC5)n2)ccc1N1C[C@@H]2C[C@H]1CN2C [compound 267, 4-(6,7,8,9-tetrahydro-5H-pyrido[2,3-b]indol-3-yl)-N-(3-methyl-4-((1S,4S)-5-methyl-2,5-diazabicyclo[2.2.1]heptan-2-yl)phenyl)pyrimidin-2-amine]	1 to 10
Cc1cc(Nc2nccc(-c3ccc(NCCCN(C)C)nc3)n2)ccc1N1C[C@@H]2C[C@H]1CO2 [compound 203, 4-(6-(3-dimethylamino)propylaminopyridin-3-yl)-N-(3-methyl-4-((1S,4S)-5-oxa-2-azabicyclo[2.2.1]heptan-2-yl)phenyl)pyrimidin-2-amine]	< 1
Cc1cc(Nc2nccc(-c3ccc(N4C[C@@H](C)O[C@@H](C)C4)nc3)n2)ccc1N1C[C@@H]2C[C@H]1CO2 (relative stereo) [compound 201]	< 1
Cc1cc(Nc2nccc(-c3ccc(N4CCOCC4)nc3)n2)ccc1N1C[C@@H]2C[C@H]1CN2C [compound 231, 4-(6-(morpholin-4-yl)pyridin-3-yl)-N-(3-methyl-4-((1S,4S)-5-methyl-2,5-diazabicyclo[2.2.1]heptan-2-yl)phenyl)pyrimidin-2-amine]	< 1
Cc1cc(Nc2nccc(-c3ccc(OC4CCOCC4)nc3)n2)ccc1N1C2CCC1CC(N1CCOCC1)C2 (stereo not shown) [compound 285, 4-(6-(tetrahydropyran-4-yloxy)pyridin-3-yl)-N-(3-methyl-4-(3-(morpholin-4-yl)-8-azabicyclo[3.2.1]octan-8-yl)phenyl)pyrimidin-2-amine]	< 1
CS(=O)(=O)N1C[C@@H]2C[C@H]1CN2c1ccc(Nc2nccc(-c3ccc(OC4CCOCC4)nc3)n2)cc1Cl [compound 258, 4-(6-(tetrahydropyran-4-yloxy)pyridin-3-yl)-N-(3-chloro-4-((1S,4S)-5-(methylsulfonyl)-2,5-diazabicyclo[2.2.1]heptan-2-yl)phenyl)pyrimidin-2-amine]	1 to 10
CC(C)N1C[C@@H]2C[C@H]1CN2c1ccc(Nc2nccc(-c3ccc(N4CCOCC4)nc3)n2)cc1Cl [compound 263, 4-(6-(morpholin-4-yl)pyridin-3-yl)-N-(3-chloro-4-((1S,4S)-5-(1-methylethyl)-2,5-diazabicyclo[2.2.1]heptan-2-yl)phenyl)pyrimidin-2-amine]	< 1

Same assay, conditions: Ba/F3 V617F cells, proliferation, level of activity to inhibit JAK2, read-out: IC50 (the source's name)

Structure (SMILES)	GI50 [µM]
Cc1cc(Nc2nccc(-c3ccc(N4CCOCC4)nc3)n2)ccc1N1C[C@@H]2C[C@H]1CN2C [compound 10, 4-(6-(morpholin-4-yl)pyridin-3-yl)-N-(3-methyl-4-((1S,4S)-5-methyl-2,5-diazabicyclo[2.2.1]heptan-2-yl)phenyl)pyrimidin-2-amine]	< 1
CCC(=O)N1C[C@@H]2C[C@H]1CN2c1ccc(Nc2nccc(-c3ccc(N)nc3)n2)cc1C [compound 148, 4-(6-aminopyridin-3-yl)-N-(3-methyl-4-((1S,4S)-5-ethylcarbonyl-2,5-diazabicyclo[2.2.1]heptan-2-yl)phenyl)pyrimidin-2-amine]	< 1
Cc1cc(Nc2nccc(-c3cnn(-c4cccc(Cl)c4)c3)n2)ccc1N1C[C@@H]2C[C@H]1CN2C [compound 106, 4-(1-(3-chlorophenyl)-1H-pyrazol-4-yl)-N-(3-methyl-4-((1S,4S)-5-methyl-2,5-diazabicyclo[2.2.1]heptan-2-yl)phenyl)pyrimidin-2-amine]	1 to 10
Cc1cc(Nc2nccc(-c3ccc(N4CCOCC4)nc3)n2)ccc1N1C[C@@H]2C[C@H]1CN2CC1CC1 [compound 37, 4-(6-(morpholin-4-yl)pyridin-3-yl)-N-(3-methyl-4-((1S,4S)-5-(cyclopropyl)methyl-2,5-diazabicyclo[2.2.1]heptan-2-yl)phenyl)pyrimidin-2-amine]	< 1
CN(C)c1ccc(-c2ccnc(Nc3ccc(N4C[C@@H]5C[C@H]4CN5C)c(F)c3)n2)cc1 [compound 15, 4-(4-(N,N-dimethylamino)phenyl)-N-(3-fluoro-4-((1S,4S)-5-methyl-2,5-diazabicyclo[2.2.1]heptan-2-yl)phenyl)pyrimidin-2-amine]	1 to 10
CCN1C[C@@H]2C[C@H]1CN2c1ccc(Nc2nccc(-c3ccc(N(C)C)nc3)n2)cc1C [compound 24, 4-(6-(dimethylamino)pyridin-3-yl)-N-(3-methyl-4-((1S,4S)-5-ethyl-2,5-diazabicyclo[2.2.1]heptan-2-yl)phenyl)pyrimidin-2-amine]	< 1
Cc1cc(Nc2nccc(-c3ccc(C(=O)NC4=NCCS4)cc3)n2)ccc1N1C[C@@H]2C[C@H]1CN2C [compound 45, 4-(4-(4,5-dihydrothiazol-2-ylcarbamoyl)phenyl)-N-(3-methyl-4-((1S,4S)-5-methyl-2,5-diazabicyclo[2.2.1]heptan-2-yl)phenyl)pyrimidin-2-amine]	1 to 10
Cc1cc(Nc2nccc(-c3ccc(NCCNS(=O)(=O)C4CC4)nc3)n2)ccc1N1C[C@@H]2C[C@H]1CO2 [compound 100, 4-(6-((2-(cyclopropylsulfonyl)aminoethyl)-amino)pyridin-3-yl)-N-(3-methyl-4-((1S,4S)-5-oxa-2-azabicyclo[2.2.1]heptan-2-yl)phenyl)pyrimidin-2-amine]	< 1
Cc1cc(Nc2nccc(-c3cnc4c(c3)OC(C)(C)C(=O)N4)n2)ccc1N1C[C@@H]2C[C@H]1CN2S(C)(=O)=O [compound 29, 4-(2,2-dimethyl-3-oxo-3,4-dihydro-2H-pyrido[3,2-b][1,4]oxazin-7-yl)-N-(3-methyl-4-((1S,4S)-5-(methylsulfonyl)-2,5-diazabicyclo[2.2.1]heptan-2-yl)phenyl)pyrimidin-2-amine]	< 1
CN1C2CCC1CN(c1ccc(Nc3nccc(-c4ccc(N)nc4)n3)cc1)C2 [compound 158, 4-(6-aminopyridin-3-yl)-N-(4-(8-methyl-3,8-diazabicyclo[3.2.1]octan-3-yl)phenyl)pyrimidin-2-amine]	< 1
Cc1cc(Nc2nccc(-c3ccc(NCc4ccccc4)nc3)n2)ccc1N1C[C@@H]2C[C@H]1CN2C [compound 80, 4-(6-(benzylamino)pyridin-3-yl)-N-(3-methyl-4-((1S,4S)-5-methyl-2,5-diazabicyclo[2.2.1]heptan-2-yl)phenyl)pyrimidin-2-amine]	< 1
CN1C2CCC1CN(c1ccc(Nc3nccc(-c4ccc(N5CCOCC5)nc4)n3)cc1)C2 [compound 155, 4-(6-(morpholin-4-yl)pyridin-3-yl)-N-(4-(8-methyl-3,8-diazabicyclo[3.2.1]octan-3-yl)phenyl)pyrimidin-2-amine]	< 1
CCOc1ccc(-c2ccnc(Nc3ccc(N4C[C@@H]5C[C@H]4CN5C)c(F)c3)n2)cn1 [compound 174, 4-(6-ethoxypyridin-3-yl)-N-(3-fluoro-4-((1S,4S)-5-methyl-2,5-diazabicyclo[2.2.1]heptan-2-yl)phenyl)pyrimidin-2-amine]	1 to 10
Cc1cc(Nc2nccc(-c3cncc(C(=O)N4CCOCC4)c3)n2)ccc1N1C[C@@H]2C[C@H]1CN2C [compound 52, 4-(5-((morpholin-4-yl)carbonyl)pyridin-3-yl)-N-(3-methyl-4-((1S,4S)-5-methyl-2,5-diazabicyclo[2.2.1]heptan-2-yl)phenyl)pyrimidin-2-amine]	< 1
Cc1cnc(Nc2ccc(N3C[C@@H]4C[C@H]3CN4C)c(F)c2)nc1-c1ccc(N(C)C)nc1 [compound 6, 4-(6-(N,N-dimethylamino)pyridin-3-yl)-5-methyl-N-(3-fluoro-4-((1S,4S)-5-methyl-2,5-diazabicyclo[2.2.1]heptan-2-yl)phenyl)pyrimidin-2-amine]	< 1
Cc1cc(Nc2nccc(-c3ccc(Cc4ccccc4)nc3)n2)ccc1N1CC2(C)CN(C)CC(C)(C1)C2 [compound 90, 4-(6-(benzyl)pyridin-3-yl)-N-(3-methyl-4-(1,5,7-trimethyl-3,7-diazabicyclo[3.3.1]nonan-3-yl)phenyl)pyrimidin-2-amine]	< 1

Same assay, conditions: inhibition of JAK2 activity, proliferation of Ba/F3 V617F cells, read-out: IC50 (the source's name)

Structure (SMILES)	GI50 [µM]
Cc1cc(Nc2nccc(-c3ccc(N)nc3)n2)cnc1N1C[C@@H]2C[C@H]1CN2C [compound 145, 4-(6-aminopyridin-3-yl)-N-(5-methyl-6-((1S,4S)-5-methyl-2,5-diazabicyclo[2.2.1]heptan-2-yl)pyridin-3-yl)pyrimidin-2-amine]	< 1
Cc1cc(-c2ccnc(Nc3cnc(N4C[C@@H]5C[C@H]4CN5C)c(C)c3)n2)cnc1N1CCOCC1 [compound 64, 4-(5-methyl-6-(morpholin-4-yl)pyridin-3-yl)-N-(5-methyl-6-((1S,4S)-5-methyl-2,5-diazabicyclo[2.2.1]heptan-2-yl)pyridin-3-yl)pyrimidin-2-amine]	< 1
Cc1cc(Nc2nccc(-c3ccc(NC(=O)C(C)(C)C)cc3)n2)cnc1N1C[C@@H]2C[C@H]1CN2C [compound 131, 4-(4-(t-butylcarbonylamino)phenyl)-N-(5-methyl-6-((1S,4S)-5-methyl-2,5-diazabicyclo[2.2.1]heptan-2-yl)pyridin-3-yl)pyrimidin-2-amine]	< 1
Cc1cc(Nc2nccc(-c3cnc4c(c3)OC(C)(C)C(=O)N4)n2)cnc1N1C[C@@H]2C[C@H]1CN2C [compound 138, 4-(2,2-dimethyl-3-oxo-3,4-dihydro-2H-pyrido[3,2-b][1,4]oxazin-7-yl)-N-(5-methyl-6-((1S,4S)-5-methyl-2,5-diazabicyclo[2.2.1]heptan-2-yl)pyridin-3-yl)pyrimidin-2-amine]	< 1
CN(C)c1ccc(-c2ccnc(Nc3ccc(N4C[C@@H]5C[C@H]4CN5C)nc3)n2)cc1 [compound 56, 4-(4-(dimethylamino)phenyl)-N-(6-((1S,4S)-5-methyl-2,5-diazabicyclo[2.2.1]heptan-2-yl)pyridin-3-yl)pyrimidin-2-amine]	1 to 10
